Test results from article PMC7155755, “Binding of the Human 14-3-3 Isoforms to Distinct Sites in the Leucine-Rich Repeat Kinase 2” (Frontiers in Neuroscience, 2020).
“Also recorded” adds a separate entry of the source. Square brackets hold non-standard residues; d marks the D form. Ends that are not written are not given here. fluorescein = N-terminal fluorescein label; pS = N[C@@H](COP(=O)(O)O)C(=O)O

T1: human 14-3-3γ (Homo sapiens, UniProt P61981)
T1 construct: MBP (cleaved yes); made in house; host or cells: E. coli BL21DE3
T1 sequence (P61981 1-247): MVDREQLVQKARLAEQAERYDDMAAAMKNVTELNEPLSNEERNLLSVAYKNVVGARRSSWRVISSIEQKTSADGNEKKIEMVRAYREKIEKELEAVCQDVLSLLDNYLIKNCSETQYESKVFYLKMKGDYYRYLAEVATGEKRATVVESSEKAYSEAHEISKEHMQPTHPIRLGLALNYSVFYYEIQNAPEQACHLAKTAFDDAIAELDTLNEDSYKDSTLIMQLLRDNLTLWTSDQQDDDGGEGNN

T2: human 14-3-3 isoform σ (Homo sapiens, UniProt P31947)
T2 construct: MBP (cleaved yes); made in house; host or cells: E. coli BL21DE3
T2 sequence (P31947 1-248): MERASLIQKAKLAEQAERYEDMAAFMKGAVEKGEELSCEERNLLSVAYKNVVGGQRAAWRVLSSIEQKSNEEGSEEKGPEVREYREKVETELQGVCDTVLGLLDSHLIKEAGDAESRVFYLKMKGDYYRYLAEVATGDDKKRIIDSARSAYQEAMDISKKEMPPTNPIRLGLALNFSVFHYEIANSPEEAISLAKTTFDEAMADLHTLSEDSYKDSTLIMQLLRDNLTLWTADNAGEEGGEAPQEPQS

T3: human 14-3-3 isoform ϵ (Homo sapiens, UniProt P62258)
T3 construct: MBP (cleaved yes); made in house; host or cells: E. coli BL21DE3
T3 sequence (P62258 1-255): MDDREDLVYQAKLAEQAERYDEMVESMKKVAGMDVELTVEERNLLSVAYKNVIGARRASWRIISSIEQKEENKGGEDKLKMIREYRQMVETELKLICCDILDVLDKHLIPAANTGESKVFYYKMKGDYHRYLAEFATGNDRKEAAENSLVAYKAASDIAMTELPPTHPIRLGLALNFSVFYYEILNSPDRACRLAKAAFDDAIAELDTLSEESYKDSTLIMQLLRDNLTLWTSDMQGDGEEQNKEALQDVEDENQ

T4: R1441C/pS1444 (R1441C (stands in the printed letters))
T4 construct: LRRK2-derived peptide of the Roc domain with the familial PD mutation R1441C, phosphorylated at S1444; source: synthetic peptide (Peps4LS GmbH)
T4 peptide: fluorescein-LFNIKACAS[pS]SPVILVGT

B1: human 14-3-3 isoform θ (recombinant, MBP tag removed) (natural protein, UniProt P27348 1-245, looked up)
chain: MEKTELIQKAKLAEQAERYDDMATCMKAVTEQGAELSNEERNLLSVAYKNVVGGRRSAWRVISSIEQKTDTSDKKLQLIKDYREKVESELRSICTTVLELLDKYLIANATNPESKVFYLKMKGDYFRYLAEVACGDDRKQTIDNSQGAYQEAFDISKKEMQPTHPIRLGLALNFSVFYYEILNNPELACTLAKTAFDEAIAELDTLNEDSYKDSTLIMQLLRDNLTLWTSDSAGEECDAAEGAEN
notes: 14-3-3 theta, human; Expressed from pMAL2CX plasmids; also called 14-3-3θ; source: E. coli BL21DE3, purified (maltose-agarose, Factor Xa, anion exchange)
B2: human 14-3-3 isoform ε (recombinant, MBP tag removed) (natural protein, UniProt P62258 1-255, looked up)
chain: T3 sequence (P62258 1-255)
notes: 14-3-3 epsilon, human; Expressed from pMAL2CX plasmids; also called 14-3-3ε; source: E. coli BL21DE3, purified (maltose-agarose, Factor Xa, anion exchange)
B3: human 14-3-3 isoform β (recombinant, MBP tag removed) (natural protein, UniProt P31946 1-246, looked up)
chain: MTMDKSELVQKAKLAEQAERYDDMAAAMKAVTEQGHELSNEERNLLSVAYKNVVGARRSSWRVISSIEQKTERNEKKQQMGKEYREKIEAELQDICNDVLELLDKYLIPNATQPESKVFYLKMKGDYFRYLSEVASGDNKQTTVSNSQQAYQEAFEISKKEMQPTHPIRLGLALNFSVFYYEILNSPEKACSLAKTAFDEAIAELDTLNEESYKDSTLIMQLLRDNLTLWTSENQGDEGDAGEGEN
notes: 14-3-3 beta, human; Expressed from pMAL2CX plasmids; also called 14-3-3β; source: E. coli BL21DE3, purified (maltose-agarose, Factor Xa, anion exchange)
B4: human 14-3-3 isoform σ (recombinant, MBP tag removed) (natural protein, UniProt P31947 1-248, looked up)
chain: T2 sequence (P31947 1-248)
notes: 14-3-3 sigma, human; Expressed from pMAL2CX plasmids; also called 14-3-3σ; source: E. coli BL21DE3, purified (maltose-agarose, Factor Xa, anion exchange)
B5: human 14-3-3 isoform ζ (recombinant, MBP tag removed) (natural protein, UniProt P63104 1-245, looked up)
chain: MDKNELVQKAKLAEQAERYDDMAACMKSVTEQGAELSNEERNLLSVAYKNVVGARRSSWRVVSSIEQKTEGAEKKQQMAREYREKIETELRDICNDVLSLLEKFLIPNASQAESKVFYLKMKGDYYRYLAEVAAGDDKKGIVDQSQQAYQEAFEISKKEMQPTHPIRLGLALNFSVFYYEILNSPEKACSLAKTAFDEAIAELDTLSEESYKDSTLIMQLLRDNLTLWTSDTQGDEAEAGEGGEN
notes: 14-3-3 zeta, human; Expressed from pMAL2CX plasmids; also called 14-3-3ζ; source: E. coli BL21DE3, purified (maltose-agarose, Factor Xa, anion exchange)
B6: human 14-3-3 isoform η (recombinant, MBP tag removed) (natural protein, UniProt Q04917 1-246, looked up)
chain: MGDREQLLQRARLAEQAERYDDMASAMKAVTELNEPLSNEDRNLLSVAYKNVVGARRSSWRVISSIEQKTMADGNEKKLEKVKAYREKIEKELETVCNDVLSLLDKFLIKNCNDFQYESKVFYLKMKGDYYRYLAEVASGEKKNSVVEASEAAYKEAFEISKEQMQPTHPIRLGLALNFSVFYYEIQNAPEQACLLAKQAFDDAIAELDTLNEDSYKDSTLIMQLLRDNLTLWTSDQQDEEAGEGN
notes: 14-3-3 eta, human; Expressed from pMAL2CX plasmids; also called 14-3-3η; source: E. coli BL21DE3, purified (maltose-agarose, Factor Xa, anion exchange)

Key:
human 14-3-3γ = target: T1, human 14-3-3γ; assay: Fluorescence polarization (FP) direct binding assay; settings: dilution series of 14-3-3γ (at least 5 μM down to pM), fluorescein-labeled peptide 1 nM
Description: (§1) Human MBP-tagged 14-3-3 isoforms were expressed from pMAL2CX plasmids [[Kilisch et al. (2016)], [Yuan et al. (2003)]] in E. coli BL21DE3 cells. After induction with […] isopropyl-β-D-thiogalactoside, the protein was expressed for 4 h at room temperature. Cells were lysed in MBP-lysis buffer [50 mM Tris–HCl pH 7.5, 150 mM NaCl, 5 mM MgCl2, 1 mM PMSF, 1× cOmplete Protease Inhibitor EDTA-free (Roche)] using a French Pressure cell (FRENCH Press, Thermo, United States). Following centrifugation at 42,000 × g and 4°C for 30 min, the supernatant was transferred to a Maltose-agarose column (1.5 ml bed volume; New England Biolabs GmbH, Germany). Captured proteins were washed six times with 10 ml wash buffer (50 mM Tris–HCl pH 7.5, 150 mM NaCl, 5 mM MgCl2) prior to elution using wash buffer including 15 mM D-maltose. To remove the MBP tag, fusion proteins were incubated with Factor Xa (New England Biolabs GmbH, Germany), at a final concentration of 0.4 μg per 1 mg fusion protein for 24 h at RT following another 72 h at 4°C. Anion exchange chromatography was finally applied to separate residual MBP using a buffer gradient from 20 mM Tris pH 8 to 20 mM Tris pH 8 with 1 M NaCl. For this a RESOURCE Q column (GE Healthcare, United Kingdom) was utilized, employing an ÄKTApurifier (GE Healthcare, United Kingdom) or an NGC Quest Chromatography System (Bio-Rad Laboratories GmbH, Germany).
(§2) FP was used to determine binding affinities of different phosphorylated and non-phosphorylated peptides derived from LRRK2 sequences (Peps4LS GmbH, Germany) toward human 14-3-3 isoforms. Direct binding assays were performed and evaluated as previously described ([Muda et al., 2014]; [Manschwetus et al., 2019]). Briefly, both dilution series of 14-3-3 isoforms ranging from final concentrations of at least 5 μM down to picomolar concentrations and dilutions of the respective fluorescein-labeled peptide (final conc. 1 nM) were prepared in FP buffer (20 mM MOPS pH 7, 150 mM NaCl, 0.005% CHAPS). Subsequently, samples were mixed in 384-well microtiter plates as duplicates (BRAND plates, pureGrade, black, BRAND GmbH & Co. KG, Germany) in a 1:1 ratio and measured using a CLARIOstar plate reader (BMG LABTECH, Germany). Two protein preparations were utilized for at least two independent replications for all measurements while high affinity binding peptides were particularly measured with a minimum of three independent replications for statistical evaluation. Data was analyzed with GraphPad Prism 6.0 (GraphPad Software, San Diego, CA, United States) by plotting obtained FP signals (mPol) against the logarithmic 14-3-3 protein concentrations. Data points represent means ± standard error of mean (SEM) of duplicates. “Ctrl.” indicates the FP signal of fluorescein-labeled peptides without 14-3-3 protein. Sigmoidal dose-response fitting was performed to define KD-values.

human 14-3-3 isoform σ = target: T2, human 14-3-3 isoform σ; assay: as above; settings: fluorescein-labeled peptide 1 nM
Description: as §1, §2

[1] = test system: all seven human 14-3-3 isoforms; assay: Fluorescence polarization (FP) direct binding assay, statements over all isoforms; settings: for Binding to the human 14-3-3 isoforms, in words: FP direct binding, all seven isoforms, fluorescein-labeled peptide 1 nM, FP buffer pH 7
Description: as §1, §2

human 14-3-3 isoform ϵ = target: T3, human 14-3-3 isoform ϵ; assay: Fluorescence polarization (FP) direct binding assay; settings: fluorescein-labeled peptide 1 nM
Description: as §1, §2

14-3-3γ = 14-3-3γ (UniProt P61981); assay: fluorescence polarization direct binding
pS1444 = assay: fluorescence polarisation; direct binding; dilution series of 14-3-3 isoform (at least 5 μM down to picomolar) mixed with 1 nM fluorescein-labelled peptide; 20 mM MOPS pH 7, 150 mM NaCl, 0.005% CHAPS; 384-well plates
R1441C/pS1444 = target: T4, R1441C/pS1444; assay: as above; settings: both partners purified

Molecule	Binding to 14-3-3γ, in words (human 14-3-3γ; FP buffer pH 7)	Binding to the human 14-3-3 isoforms, in words [1]	Kd (pS1444) [nM]	fold decrease in affinity against pS1444 (R1441C/pS1444) [fold]	further results
HIEVRKELAEKMRRpTSVE [pT2524, fluorescein-labeled phosphopeptide of the LRRK2 C-terminus comprising pT2524]	micromolar affinities	Micromolar affinities; also recorded: low micromolar range			Binding to 14-3-3γ, in words (human 14-3-3γ; FP buffer pH 7, listed as Phosphorylated T2524): clearly binds with micromolar affinity; Binding to 14-3-3 isoform σ, in words (human 14-3-3 isoform σ): worst binding
LFNIKACASpSSPVILVGT [R1441C/pS1444, fluorescein-labeled LRRK2 Roc domain peptide with R1441C and pS1444]	micromolar affinities; also recorded: strongly decreased the nanomolar affinity of pS1444 alone	affinities in the micromolar range			Factor by which the mutation R1441C decreases the affinity to all 14-3-3 isoforms ([1]; FP, R1441C/pS1444 compared with pS1444): ≥ 30
LFNIKARApSSSPVILVGT [pS1443, fluorescein-labeled LRRK2 Roc domain phosphopeptide, pS1443]	did not allow for binding	no detectable binding; also recorded: not demonstrated for any isoform			
LFNIKARApSpSSPVILVGT [pS1443/pS1444, fluorescein-labeled LRRK2 Roc domain peptide doubly phosphorylated at S1443 and S1444]	reduced binding to 14-3-3γ compared to pS1444	micromolar affinities; also recorded: reduced nanomolar binding affinity to micromolar values			Binding to 14-3-3 isoform ϵ, in words (human 14-3-3 isoform ϵ): not fitted due to an unusual binding behavior
LRRK2 (leucine-rich repeat kinase 2) (from UniProt Q5S007) pS910 peptide					binding against the reference (14-3-3γ; reference: unphosphorylated S910 peptide, sites S910): gained
LRRK2 (leucine-rich repeat kinase 2) (from UniProt Q5S007) pS1443/pS1444 peptide					KD (14-3-3γ; reference: pS1444 peptide, sites S1443): weaker; reference 106 ± 4; binding against the reference (14-3-3γ; reference: unphosphorylated S1443/S1444 peptide, sites S1443,S1444): gained
RCSPNLQRHpSNSLGPIFDH [pS933, fluorescein-labeled LRRK2-derived phosphopeptide covering pS933]	neither the Q930R mutation nor the additional phosphorylation in pS933 could induce binding	no 14-3-3 binding was detectable			
SPNLQRHSNpSLGPIF [pS935, fluorescein-labeled LRRK2-derived phosphopeptide covering pS935]	did not bind; also recorded: no binding was detected	no binding could be detected; also recorded: could not detect binding; also recorded: non-binding			
B1			195	≥ 30	
B2			> 1000	≥ 30	
B3			183	≥ 30	
B4			802	≥ 30	
B5			476	≥ 30	
B6			85	≥ 30	
